The subject of assay [1] is LPS activated rat microglia cells. Kind of assay: TNF-alpha release from LPS activated rat primary microglia (ELISA). The following applies: for TNF-alpha release: rat primary microglia, 100 ng/ml LPS, compound 1 hr before LPS, supernatant 24 hrs post-LPS. Type of assay: cell-based. As to the method:
(§1) Rat microglia were prepared from two day old rat pups. Pup brains were removed and the meninges were gently removed. Once sufficient amount of brains were collected, brains were minced with a blunt scissors (10 times) and transferred to a 15ml conical tube with a pasteur pipette and titurated 25 times. Dissociated cells were then centrifuged at 1000 RPM for 10 minutes (RT). The supernatant was removed and 2 mls of fresh media was added. The resultant cell suspension was titurated 10 times. Following titration the cell suspension was plated in a T175 cm^2 culture flasks at a density of 4 brains per flask in 25 mls. MEM media was used for the experiments, supplemented with 10% FBS, 100 i.u.penicillin, 100 i.u.streptomycin and L-Glutamine. Microglia were isolated on day 14 by shaking on an orbital rotation shaker. The purity of the cultures was 98-100% as determined by immunostaining with ED-40 antibody.
(§2) Endotoxin (LPS) at a concentration of a 100 ng/ml were used for activation of rat microglia cells. This concentration had previously shown to be effective in inducing TNF-alpha and Nitrite release. All assays were performed in 48 well plates (Becton Dickinson) at ˜2×10^5 cells or 0.5×10^5 per 1 ml per well in 10% MEM media. Microglia cells were pre-incubated 1 hr prior to LPS challenge with either vehicle (0.1%DMSO) or test compound in DMEM containing 10%FBS (microglia) or RPMI containing 10%FBS (THP-1 monocytes). Supernatants from LPS activated rat microglia were collected at 24 hrs post-LPS challenge.
Collected supernatants were assayed for TNF-alpha using a Pharmingen OPtEIA Rat (microglia).

Assay [2] has the same test system. The assay can be described thus: Nitrite (NO) release from LPS activated rat primary microglia (Modified Griess Reagent). Type of assay: cell-based. The note with it: 100 ng/ml LPS, compound 1 hr before LPS, supernatant 24 hrs post-LPS. Here is the method: as §1, §2
Nitrite assay was performed in a 96 well plate using a Modified Griess Reagent (Sigma). In brief, a 100 ul of Modified Griess Reagent was added to a 100 ul of collected supernatant. Samples were read at a wavelength of 540nm. All values were calculated against a NaNO2 standard curve.

Another assay has as its system IκBα phosphorylation. The following applies: irreversible inhibitor; read-out: IC50, inhibition of IκBα phosphorylation; cited from earlier work.
The next assay concerns 5-LOX. The note with it: cited from earlier work.
Another assay concerns IκBα. Kind of assay: LPS mediated IκBα degradation in microglia (immunoblotting). In kind it is cell-based, rat. The note with it: 100 ng/ml LPS, 10μM ATFMK, 50μM L-655,238. As to the method:
Immunoblotting was carried out as described previously (Parvathenani et al., 2000). Briefly 25μg of protein was fractionated on a 4-20% tris-glycine gel (NOVEX, Calif.) and transferred to PVDF membrane (NOVEX, Calif.). The membrane was probed with a polyclonal antibody specific for IκBα. To distinguish between the phosphorylated and non-phosphorylated forms of cPLA2, 50μg of protein was run on an 8% tris-glycine gel (Novex, Calif.) for 4.5 hours at 125V, transferred and probed with a monoclonal antibody specific for cPLA2.
Effects of cPLA2 and 5-LOX inhibitors on LPS mediated IκBα degradation. Microglia were treated with 100 ng/ml of LPS for various periods of time following which whole cell lysates were prepared and run on SDS-PAGE, transferred and probed with a IκBα antibody as mentioned in immunoblotting. (6A) 100 ng/ml LPS alone, (6B) LPS+10μM ATFMK, (6C) LPS+50μM L-655,238.

The next assay concerns NF-κB (p65). The assay can be described thus: LPS mediated NF-κB (p65) nuclear translocation in microglia (indirect immunofluorescence). In kind it is cell-based, rat. The note with it: 100 ng/ml LPS, 5 min, 10μM ATFMK, 50μM L-655,238. Here is the method:
Cells were washed once with PBS, fixed and permeabilized with ice cold methanol (100%) for 5 minutes and washed 3× in PBS for 10 min. The cover slips were blocked for 1 hour in 10% serum/PBS (serum derived from animal in which secondary antibody was generated), incubated for 2-3 hours in primary antibody solution (1:50 dilution in 1.5% serum/PBS) and washed 3× in PBS for 10 min. Secondary antibody linked to fluorescein was applied for one hour (1:100 dilution in 1.5% serum/PBS) and washed 3× in PBS for 10 min. If the nucleus was stained, the cells were incubated for 15 minutes with DAPI (1:10000) at 37° C. and washed. The coverslips were then mounted onto glass slides using mounting media and viewed under a fluorescence microscope.
Effects of cPLA2 and 5-LOX inhibitors on LPS mediated NF-κB translocation. Microglia were treated with 100 ng/ml of LPS for various periods of time following which p65 distribution was assessed by indirect immunofluorescence (7A) control, (7B) LPS-5 min., (7C) LPS+10μM ATFMK—5 min., (7D) LPS+50μM L-655,238—5 min. (7E) LPS+NDGA-20μM—5 min.

The subject of another assay is COX. The note with it: cited from earlier work.

The text below walks through data of patent US6545019B2, “Method of modulating microglial activation for the treatment of acute and chronic neurodegenerative disorders” (Bristol-Myers Squibb Company, priority 2000, dated 2003).

The structures appear in SMILES notation. “Also recorded” adds a separate entry of the source.

Turning to `Cc1ccc(-c2cc(C(F)(F)F)nn2-c2ccc(S(N)(=O)=O)cc2)cc1` [celecoxib], the “pro-inflammatory release on activated microglia” value in assay [1] is on record as “no significant effect”.
On to `CC(C)Cc1ccc(C(C)C(=O)O)cc1` (centres unmarked) [Ibuprofen], for which the TNF-alpha release entry in assay [1] was “failed to produce any reduction in TNF-alpha release”.
In the case of `CS(=O)(=O)c1ccc(C2=C(c3ccccc3)C(=O)OC2)cc1` [rofecoxib], in assay [1], the “pro-inflammatory release on activated microglia” value is recorded as “no significant effect” and the TNF-alpha release result is recorded as “failed to produce any reduction in TNF-alpha release”.
For `CC(C)(C)c1ccc(S(=O)(=O)/C=C/C#N)cc1` [BAY 11-7085, (E)3-((4-t-Butylphenyl)sulfonyl)-2-propenenitrile], the TNF-alpha release entry in assay [1] was “inhibited LPS induced TNFα and NO release to control levels”. For the same compound, the “nitrite (NO) release” value in assay [2] was “inhibited LPS induced TNFα and NO release to control levels”. Besides, the IC50 with IκBα phosphorylation was 10 µM.
For `CCCCCC(O)c1ccc(Cc2cnc3ccccc3c2)cc1` (stereo not drawn) [para-REV5901, α-pentyl-4-(3-quinolinylmethyl)benzenemethanol], the IC50 in the assay with 5-LOX was 0.1 µM. In addition, the “degradation of IκBα following LPS stimulation” value in the assay with IκBα is “attenuated the degradation of IκBα”. In assay [1], the TNF-alpha release entry was “dose dependently inhibited TNF-alpha release and nitrite to near control levels; also recorded: significantly inhibited TNF-alpha release”. For the same compound, the “nitrite (NO) release” value in assay [2] was “dose dependently inhibited TNF-alpha release and nitrite to near control levels; also recorded: significantly inhibited nitrite release”. For the same compound, the “translocation of NF-κB into the nucleus” value in the assay with NF-κB (p65) is listed as “delayed the translocation of NF-κB into the nucleus”.
`O=C(CCc1ccc(OCCS(=O)(=O)CCOC(c2ccc(Cl)cc2)c2ccc(Cl)cc2)cc1)C(F)(F)F` [BMS 229724]: the values for the TNF-alpha release entry in assay [1] and in assay [1] (listed as BMS-229724) were “significant dose-dependent inhibition” and “significantly inhibited TNF-alpha release”, respectively. For the same compound, in assay [2], the “nitrite (NO) release” value is “significant dose-dependent inhibition”.
For `CC(Cc1ccc(O)c(O)c1)C(C)Cc1ccc(O)c(O)c1` (centres unmarked) [NDGA, nordihdroguaiaretic acid], the IC50 is […] in the assay on 5-LOX and 100 µM with COX. In addition, in assay [1], the TNF-alpha release result was “dose dependently inhibited TNF-alpha release and nitrite to near control levels; also recorded: significantly inhibited TNF-alpha release”. Also, the “nitrite (NO) release” value in assay [2] is “dose dependently inhibited TNF-alpha release and nitrite to near control levels”.
`CCCCC/C=C\C/C=C\C/C=C\C/C=C\CCCC(=O)C(F)(F)F` [ATFMK, arachidonyltrifluoromethyl ketone]: the “degradation of IκBα following LPS stimulation” value in the assay on IκBα was “attenuated the degradation of IκBα”. The TNF-alpha release entry in assay [1] is given as “significant dose-dependent inhibition; also recorded: significantly inhibited TNF-alpha release”. The “nitrite (NO) release” value in assay [2] is recorded as “significant dose-dependent inhibition; also recorded: significantly inhibited nitrite release”. Further, the “translocation of NF-κB into the nucleus” value in the assay with NF-κB (p65) is “delayed the translocation of NF-κB into the nucleus”.
